The subject of one assay is caspase-3. Description: Fluorometric caspase-3 activity assay in carcinoma cells. The format is cell-based, human. The conditions noted are these: P5 and P693 cells, cisplatin 2 µg/ml alone; Fig. 1c. The procedure:
• (a) Human epidermoid lung cancer cells (P693) were injected into nude mice. At a tumour volume of 500 mm^3 weekly treatment with cisplatin (5mg/kg/week) was started. Cisplatin was injected intraperitoneally in the absence (CIS) or presence (DEX/CIS) of DEX which was added to the drinking water (0.28 mg/L) for the duration of the experiment. […] As controls, tumor growth of xenografts from mice which received neither cisplatin nor DEX (CO) or from mice which received DEX only (DEX) was determined. The tumour volume in each animal was measured at weekly intervals for a period of 5 weeks. Data are presented as the means +/- SD of 6 to 8 animals. • (b) The human cervical carcinoma cell lines HeLa and P5 were γ-irradiated (10 Gy) or treated with cisplatin (2 µg/ml) in the absence (white bars) or presence (black bars) of DEX (1 µM). The percentage of apoptosis was measured in untreated (CO) and stimulated cells by annexin-staining and FACS-analysis at the time points indicated. (c) P5, P693 and human leukemic T cells (CEM) cells were treated with cisplatin (2 µg/ml) in the absence or presence of DEX as indicated. 24 and 48 h following treatment cells were lysed and caspase-3 activity was determined by a fluorescent caspase-3 assay and spectroscopy.

The next assay concerns caspase-9 and caspase-3. As to the kind of experiment: Caspase-9 and caspase-3 protein expression in P5 cells (immunofluorescence, Western blot). The format is cell-based, human. The conditions noted are these: Fig. 4c. The procedure: P5 cells either untreated (CO) or stimulated with cisplatin (CIS, 2 µg/ml) were incubated in the absence or presence of DEX (1 µM). • (a) 6 and 24 h later RNA was extracted and assayed by RT-PCR for expression of caspase-9. Expression of the GAPDH gene served as control for equal conditions. • (b) 24 h after stimulation expression of caspase-9 proteins was examined by immunofluorescence staining using a rabbit polyclonal caspase-9 antibody and a FITC-coupled secondary antibody. Staining with the secondary antibody alone served as control for unspecific binding. • (c) 48 and 72 h after treatment whole cell proteins were extracted and analysed for expression of caspase-9 and caspase-3. The protein sizes in kDa are indicated on the right. […]
• (A) Cell culture. […] The mice were given 0.28 mg/L DEX in drinking water, and the amount of water consumed was monitored. […] The tumour volumes were measured using callipers, and calculated using, as an approximation, the formula for volume of a hemi-ellipsoid: π(width^2 x length)/6. […] Early apoptotic changes were identified by staining of cells with fluoresceinthiocyanate (FITC)-conjugated annexin V and propidium iodide (Becton Dickinson, Heidelberg, Germany) and analysed by flow cytometry (FACScan, Becton Dickinson) as described (Herr et al., EMBO J. 16 (1997), 6200-6208) • (E) Immunohistochemistry. […]

Consider `N.N.[Cl][Pt][Cl]` [cisplatin], for which the caspase-3 activity entry with caspase-3 is on record as “induced 48 h following cisplatin”. The “protein levels of procaspase-9” value with caspase-9 and caspase-3 (Western blot at 48 and 72 h) is recorded as “reduced the protein levels of procaspase-9”. Moreover, in the assay with caspase-9 and caspase-3 (cisplatin alone, 48 and 72 h), the procaspase-3 cleavage result is “cleaved 48 and 72 h following cisplatin”.

Values taken from EP1283052A1, “Pharmaceutical composition containing caspase-8 and /or caspase-9 useful for overcoming glucocorticoid- and cancer therapy-induced apoptosis of tumours” (Deutsches Krebsforschungszentrum Stiftung des öffentlichen …, priority 2001, dated 2003).
